{
  "source": "patent US9976141B2",
  "about": "“Compositions and methods for inhibiting gene expression of Hif2alpha” (Arrowhead Madison Inc., priority 2015, dated 2018)",
  "data": [
    {"test_system": "human (tumor) Hif2α (EPAS1) mRNA", "test": "Hif2α knockdown in orthotopic RCC tumor bearing mice, single injection of RNAi trigger-delivery polymer conjugate, RT-qPCR (Table 7)", "format": "in vivo", "conditions": "RNAi trigger 50 μg, polymer 064 125 μg; single tail vein injection; relative to isotonic glucose", "procedure,_shortened": "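Female athymic nude mice carried orthotopic A498-SEAP ccRCC kidney tumours, used 5–6 weeks after implantation. They received one tail-vein injection of RGD-targeted Hif2α RNAi trigger–polymer conjugate or isotonic glucose. Tumour Hif2α mRNA was measured by TaqMan RT-qPCR normalised to CycA (ΔΔCT) and expressed relative to glucose-treated mice.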", "values": [
      {"substance": "AD03191 (antisense AGUAAAACAAUUGUGUACUUUAA; sense AAAGUACACAAUUGUUUUACT; Hif2alpha RNAi agent antisense strand; modified_base 2,4,6,8,10,14,16,18 /mod_base = “2′-deoxy-2′-fluoro corresponding nucleoside”; modified_base 1,3,5,7,9,11,12,13,15,17,19,20,21,22,23 /mod_base = “2′-O-methyl corresponding nucleoside”; modified_base 2,3,22,23 /mod_base = “5′-phosphorothioate corresponding nucleotide”; Hif2alpha RNAi agent sense strand; modified_base 7,9,10,11 /mod_base = “2′-deoxy-2′-fluoro corresponding nucleoside”; modified_base 1,2,3,4,5,6,8,12,13,14,15,16,17,18,19,20 /mod_base = “2′-O-methyl corresponding nucleoside”; modified_base 21 /mod_base = “3′-3′-linked nucleoti)", "Relative Expression day 4 (Hif2α mRNA in kidney tumor)": 0.307},
      {"substance": "AD03192 (antisense AGUAAAACAAUUGUGUACUUUAA; sense AAAGUACACAAUUGUUUUACT; Hif2alpha RNAi agent antisense strand; modified_base 2,4,6,8,10,14,18 /mod_base = “2′-deoxy-2′-fluoro corresponding nucleoside”; modified_base 1,3,5,7,9,11,12,13,15,16,17,19,20,21,22,23 /mod_base = “2′-O-methyl corresponding nucleoside”; modified_base 2,3,22,23 /mod_base = “5′-phosphorothioate corresponding nucleotide”; Hif2alpha RNAi agent sense strand; modified_base 5,7,9,10,11,13,15 /mod_base = “2′-deoxy-2′-fluoro corresponding nucleoside”; modified_base 1,2,3,4,6,8,12,14,16,17,18,19,20 /mod_base = “2′-O-methyl corresponding nucleoside”; modified_base 21 /mod_base = “3′-3′-linked nucleoti)", "Relative Expression day 4 (Hif2α mRNA in kidney tumor)": 0.286},
      {"substance": "AD03193 (antisense AGUAAAACAAUUGUGUACUUUAA; sense AAAGUACACAAUUGUUUUACT; Hif2alpha RNAi agent antisense strand; modified_base 2,4,6,8,14 /mod_base = “2′-deoxy-2′-fluoro corresponding nucleoside”; modified_base 1,3,5,7,9,10,11,12,13,15,16,17,18,19,20,21,22,23 /mod_base = “2′-O-methyl corresponding nucleoside”; modified_base 2,3,22,23 /mod_base = “5′-phosphorothioate corresponding nucleotide”; Hif2alpha RNAi agent sense strand; modified_base 9,10,11 /mod_base = “2′-deoxy-2′-fluoro corresponding nucleoside”; modified_base 1,2,3,4,5,6,7,8,12,13,14,15,16,17,18,19,20 /mod_base = “2′-O-methyl corresponding nucleoside”; modified_base 21 /mod_base = “3′-3′-linked nucleoti)", "Relative Expression day 4 (Hif2α mRNA in kidney tumor)": 0.275},
      {"substance": "AD03253 (antisense UUUCAUGAAAUCGUUACGUUG; sense ACGUAACGAUUUCAUGAAAT; Hif2alpha RNAi agent antisense strand; modified_base 2,4,6,8,14 /mod_base = “2′-deoxy-2′-fluoro corresponding nucleoside”; modified_base 1,3,5,7,9,10,11,12,13,15,16,17,18,19,20,21 /mod_base = “2′-O-methyl corresponding nucleoside”; modified_base 2,3,20,21 /mod_base = “5′-phosphorothioate corresponding nucleotide”; Hif2alpha RNAi agent sense strand; modified_base 7,8,9 /mod_base = “2′-deoxy-2′-fluoro corresponding nucleoside”; modified_base 1,2,3,4,5,6,10,11,12,13,14,15,16,17,18,19 /mod_base = “2′-O-methyl corresponding nucleoside”; modified_base 20 /mod_base = “3′-3′-linked nucleotide”; modi)", "Relative Expression day 4 (Hif2α mRNA in kidney tumor)": 0.188},
      {"substance": "AD03254 (antisense AUUCAUGAAAUCGUUACGUUG; sense ACGUAACGAUUUCAUGAAUT; Hif2alpha RNAi agent antisense strand; modified_base 2,4,6,8,14 /mod_base = “2′-deoxy-2′-fluoro corresponding nucleoside”; modified_base 1,3,5,7,9,10,11,12,13,15,16,17,18,19,20,21 /mod_base = “2′-O-methyl corresponding nucleoside”; modified_base 2,3,20,21 /mod_base = “5′-phosphorothioate corresponding nucleotide”; Hif2alpha RNAi agent sense strand; modified_base 7,8,9 /mod_base = “2′-deoxy-2′-fluoro corresponding nucleoside”; modified_base 1,2,3,4,5,6,10,11,12,13,14,15,16,17,18,19 /mod_base = “2′-O-methyl corresponding nucleoside”; modified_base 20 /mod_base = “3′-3′-linked nucleotide”; modi)", "Relative Expression day 4 (Hif2α mRNA in kidney tumor)": 0.295},
      {"substance": "AD03255 (antisense UUUCAUGAAAUCGUUACGUUGAT; sense AACGUAACGAUUUCAUGAAAT; Hif2alpha RNAi agent antisense strand; modified_base 2,4,6,8,14 /mod_base = “2′-deoxy-2′-fluoro corresponding nucleoside”; modified_base 1,3,5,7,9,10,11,12,13,15,16,17,18,19,20,21,22 /mod_base = “2′-O-methyl corresponding nucleoside”; modified_base 23 /mod_base = “3′-3′-linked nucleotide”; modified_base 2,3,22,23 /mod_base = “5′-phosphorothioate corresponding nucleotide”; Hif2alpha RNAi agent sense strand; modified_base 8,9,10 /mod_base = “2′-deoxy-2′-fluoro corresponding nucleoside”; modified_base 1,2,3,4,5,6,7,11,12,13,14,15,16,17,18,19,20 /mod_base = “2′-O-methyl corresponding nucleoside”)", "Relative Expression day 4 (Hif2α mRNA in kidney tumor)": 0.264},
      {"substance": "AD03256 (antisense AUUCAUGAAAUCGUUACGUUGAT; sense AACGUAACGAUUUCAUGAAUT; Hif2alpha RNAi agent antisense strand; modified_base 2,4,6,8,14 /mod_base = “2′-deoxy-2′-fluoro corresponding nucleoside”; modified_base 1,3,5,7,9,10,11,12,13,15,16,17,18,19,20,21,22 /mod_base = “2′-O-methyl corresponding nucleoside”; modified_base 23 /mod_base = “3′-3′-linked nucleotide”; modified_base 2,3,22,23 /mod_base = “5′-phosphorothioate corresponding nucleotide”; Hif2alpha RNAi agent sense strand; modified_base 8,9,10 /mod_base = “2′-deoxy-2′-fluoro corresponding nucleoside”; modified_base 1,2,3,4,5,6,7,11,12,13,14,15,16,17,18,19,20 /mod_base = “2′-O-methyl corresponding nucleoside”)", "Relative Expression day 4 (Hif2α mRNA in kidney tumor)": 0.333},
      {"substance": "AD03257 (antisense UUUCAUGAAAUCGUUACGUUG; sense ACGUAACGAUUUCAUGAAAT; Hif2alpha RNAi agent antisense strand; modified_base 2,8,10,14 /mod_base = “2′-deoxy-2′-fluoro corresponding nucleoside”; modified_base 1,3,4,5,6,7,9,11,12,13,15,16,17,18,19,20,21 /mod_base = “2′-O-methyl corresponding nucleoside”; modified_base 2,3,20,21 /mod_base = “5′-phosphorothioate corresponding nucleotide”; Hif2alpha RNAi agent sense strand; modified_base 7,8,9 /mod_base = “2′-deoxy-2′-fluoro corresponding nucleoside”; modified_base 1,2,3,4,5,6,10,11,12,13,14,15,16,17,18,19 /mod_base = “2′-O-methyl corresponding nucleoside”; modified_base 20 /mod_base = “3′-3′-linked nucleotide”; modi)", "Relative Expression day 4 (Hif2α mRNA in kidney tumor)": 0.203},
      {"substance": "AD03258 (antisense AUUCAUGAAAUCGUUACGUUG; sense ACGUAACGAUUUCAUGAAUT; Hif2alpha RNAi agent antisense strand; modified_base 2,8,10,14 /mod_base = “2′-deoxy-2′-fluoro corresponding nucleoside”; modified_base 1,3,4,5,6,7,9,11,12,13,15,16,17,18,19,20,21 /mod_base = “2′-O-methyl corresponding nucleoside”; modified_base 2,3,20,21 /mod_base = “5′-phosphorothioate corresponding nucleotide”; Hif2alpha RNAi agent sense strand; modified_base 7,8,9 /mod_base = “2′-deoxy-2′-fluoro corresponding nucleoside”; modified_base 1,2,3,4,5,6,10,11,12,13,14,15,16,17,18,19 /mod_base = “2′-O-methyl corresponding nucleoside”; modified_base 20 /mod_base = “3′-3′-linked nucleotide”; modi)", "Relative Expression day 4 (Hif2α mRNA in kidney tumor)": 0.137}
    ]}
  ]
}
